Results reported in US20220233556A1, “COMPOSITIONS AND METHODS FOR TREATING OPHTHALMIC CONDITIONS” (Medicon Pharmaceuticals, Inc., priority 2017, published 2022).
Like-named read-outs stand apart in the source and are kept apart here.

How the values were obtained:
[1] = Biodistribution of PS nanoparticles after intravitreal injection; type: in vivo, New Zealand white rabbits; conditions: New Zealand white, rabbit
Description: Biodistribution of PS after intravitreal injection: PS formulated in nanoparticles as above was injected directly into the vitreous of New Zealand white rabbits. The biodistribution of PS in ocular tissues at the indicated time points post administration was determined by HPLC.

[2] = test system: uveitis; assay: LPS-induced uveitis in rats; type: in vivo; conditions: PS 3% once intravitreally, 48 h
Description: Uveitis was produced in rats by injecting LPS 75 ng into the footpad of rats. The rats were injected once intravitreally with 2 μPS 3% or vehicle. A control group included naïve rats (not LPS, no treatment). Forty-eight hours later we examined their eyes, sampled the aqueous humor and after euthanizing them we excised, fixed and stained with H&E ocular tissues following standard protocols. […] These findings document a very strong and unexpected therapeutic effect of PS against uveitis.

[3] = PS biodistribution after topical Poloxamer 407-based in-situ gel; type: in vivo, New Zealand white rabbits; conditions: Poloxamer 407 gel, eye drops; for concentration at 3 h: New Zealand white, rabbit, topical, 5.4 % PS in formulation
Description: Composition: 5.4% PS; 20% Poloxamer 407; 12% Vitamin E TPGS.
Preparation Method: Poloxamer 407 solution (thermosensitive gel solution) was prepared using a “cold method.” The required amount of Poloxamer 407 and other excipients were dissolved in cold double-distilled water at 4° C. The mixture was stirred continuously until a clear solution was obtained. Then the appropriate amount of PS was dissolved in cold PM solution with continuous stirring at room temperature until a clear solution formed.
Results: PS in this formulation was administered topically as eye drops to the eyes of New Zealand white rabbits. The biodistribution of PS in ocular tissues at 3 h and 6 h was determined by HPLC.

[4] = Safety of topically applied PS in rabbits (slit lamp, intraocular pressure, necropsy); type: in vivo
Excerpt: The Safety of Topically Applied PS.

[5] = PS levels in ocular tissues after topical gellan gum-based in-situ gel; type: in vivo, New Zealand white rabbits; conditions: New Zealand white, rabbit, gellan gum 0.5% in-situ gel, 2.4~3% PS, eye drops
Description: Composition: 2.4˜3% PS; 0.5% Gellan gum; 5% Vitamin E TPGS; 10% (2-hydroxypropyl)-β-cyclodextrin. Preparation Method: A Gellan gum solution was prepared by adding a certain amount of gellan gum to deionized water and heating the mixture to 90° C. with fast stirring (500 rpm). Once completely dissolved, the solution was filtered through a 0.22 μm filter. Then, PS and additional excipients were added to the system to achieve the above concentrations and stirred at 50° C. at 500 rpm for 30 minutes to allow complete dissolution.
Results: The above PS formulation was administered topically as eye drops to the eyes of New Zealand white rabbits. The levels of PS in ocular tissues at 2 h later were determined by HPLC.

[6] = test system: oxygen-induced retinopathy; assay: Mouse model of oxygen-induced retinopathy; type: in vivo, C57BL/6 mice; conditions: intravitreal 1 μl PS solution on P12, retina on P17, vs vehicle
Excerpt: Several animal models have been explored to understand retinal vascular development. The mouse model of oxygen-induced retinopathy is the most widely used, and has played a pivotal role in our understanding of retinal angiogenesis and in the development of therapeutics such as anti-vascular endothelial growth factor injections for wet age-related macular degeneration.
C57BL/6 mice were reared in 75±2% oxygen air starting on postnatal day 7 (P7) and moved into room air on P12, when they were injected intravitreally with 1 μl of […] PS solution or vehicle. The PS solution consisted of 4.0% PS, 20% Poloxamer 407 and 12% VETPGS (d-α-tocopheryl polyethylene glycol 1000 succinate). On P17, the pups were euthanized, both eyes were enucleated and fixed with 4% paraformaldehyde (PFA). Following several intermediate steps, the retina was existed and fixed further with 4% PFA overnight. After appropriate washings, the retina was incubated with 10 μg/ml of FITC-conjugated anti-lectin antibody overnight and retina flat-mounts were prepared on glass slides and evaluated by fluorescence microscopy. The areas of the avascular, neovascular and whole retina were determined using ImageJ software.

[7] = aqueous humor, other: intravitreal, 2% PS Nanoparticle Soln., read-out: PS in Aqueous humor
[8] = cornea, other: intravitreal, 0.2% PS Nanoparticle Soln., read-out: PS in Cornea
[9] = cornea, other: intravitreal, 2% PS Nanoparticle Soln., read-out: PS in Cornea
[10] = retina, other: intravitreal, 0.2% PS Nanoparticle Soln., read-out: PS in Retina
[11] = retina, other: intravitreal, 2% PS Nanoparticle Soln., read-out: PS in Retina
[12] = sclera, other: intravitreal, 2% PS Nanoparticle Soln., read-out: PS in Sclera
[13] = vitreous body, other: intravitreal, 0.2% PS Nanoparticle Soln., read-out: PS in Vitreous body
[14] = weekly during 1-month application

Q: For `CCOP(=O)(OCC)OCCCCOC(=O)CC1=C(C)/C(=C/c2ccc([S+](C)[O-])cc2)c2ccc(F)cc21` (centres unmarked) [PS, phosphosulindac], which concentration at 0.5 h ([1]; aqueous humor, other: intravitreal, 0.2% PS Nanoparticle Soln., read-out: PS in Aqueous humor) is on record?
A: 0 µM

Q: And the concentration at 0.5 h [1, 7]?
A: 0 µM

Q: And the concentration at 1 h [1, 7]?
A: 1.3 µM

Q: And the concentration at 0.5 h [1, 8]?
A: 23.5 µM

Q: What about the concentration at 1 h [1, 8] of the same molecule?
A: 22.4 µM

Q: What about the concentration at 0.5 h [1, 9] of the same molecule?
A: 187 µM

Q: And the concentration at 1 h [1, 9]?
A: 147 µM

Q: What about the concentration at 0.5 h [1, 10] of the same molecule?
A: 187 µM

Q: What about the concentration at 1 h [1, 10] of the same molecule?
A: 109 µM

Q: What about the concentration at 0.5 h [1, 11] of the same molecule?
A: 376 µM

Q: What about the concentration at 1 h [1, 11] of the same molecule?
A: 220 µM

Q: And the concentration at 0.5 h ([1]; sclera, other: intravitreal, 0.2% PS Nanoparticle Soln., read-out: PS in Sclera)?
A: 39.8 µM

Q: What about the concentration at 0.5 h [1, 12] of the same molecule?
A: 224 µM

Q: What about the concentration at 1 h [1, 12] of the same molecule?
A: 180 µM

Q: What about the concentration at 0.5 h ([1]; vitreous body, other: intravitreal injection, 2 % PS (nanoparticle solution; injected volume not stated), 2% PS Nanoparticle Soln., read-out: PS in Vitreous body) of the same molecule?
A: 125 µM

Q: What about the concentration at 0.5 h [1, 13] of the same molecule?
A: 198 µM

Q: And the concentration at 1 h [1, 13]?
A: 56.2 µM

Q: What about the concentration at 1 h ([1]; vitreous body, other: intravitreal, 2% PS Nanoparticle Soln., read-out: PS in Vitreous body) of the same molecule?
A: 34 µM

Q: What about the clinical score ([2]; mean±SEM, vehicle 3.3±0.2) of the same molecule?
A: 1.8±0.2

Q: What about the “inflammatory cells in the tissues of the anterior chamber” value ([2]; vehicle 203±39) of the same molecule?
A: 12±2.3

Q: And the number of cells ([2]; aqueous humor, vehicle 543±132)?
A: 164±31

Q: And the “PS in Aqueous humor” value ([3]; 3 h, 5.4% PS)?
A: 0.3 µM

Q: And the “PS in Conjunctiva” value ([3]; 3 h, 5.4% PS)?
A: 5.6 µM

Q: What about the “PS in Aqueous humor” value ([3]; 6 h, 5.4% PS) of the same molecule?
A: 0.3 µM

Q: And the “PS in Conjunctiva” value ([3]; 6 h, 5.4% PS)?
A: 10.7 µM

Q: And the “PS in Cornea” value ([3]; 6 h, 5.4% PS)?
A: 13.6 µM

Q: And the concentration at 3 h ([3]; choroid, 3 h, read-out: PS in Choroid)?
A: 0.9 µM

Q: And the concentration at 3 h ([3]; cornea, 3 h, read-out: PS in Cornea)?
A: 45.1 µM

Q: What about the signs of uveitis ([4]; 1-month application) of the same molecule?
A: No animal developed signs of uveitis

Q: What about the Intraocular pressure ([4]; Tonopen, 1-month application) of the same molecule?
A: remained normal

Q: And the “tolerability of ocular application” value ([4]; rabbits, topical)?
A: very well tolerated

Q: And the “slit lamp: corneal abnormalities (staining defects, vascularization, opacification, epithelial defects, stromal thinning, melts)” value [4, 14]?
A: nor were there signs of corneal abnormalities

Q: And the “slit lamp: follicular/papillary response or injection of the conjunctiva” value [4, 14]?
A: no evidence of follicular/papillary response or injection of the conjunctiva

Q: And the concentration at 2 h ([5]; aqueous humor, read-out: PS in Aqueous humor)?
A: 1.2 µM

Q: And the concentration at 2 h ([5]; conjunctiva, read-out: PS in Conjunctiva)?
A: 24.1 µM

Q: What about the concentration at 2 h ([5]; cornea, read-out: PS in Cornea) of the same molecule?
A: 72 µM

Q: What about the “inhibition of peripheral neovascularization” value [6] of the same molecule?
A: 36%

Q: And the “reduction of central avascular area” value [6]?
A: 51%
